Where two headings read alike, the source gives them in different places.
Columns and labels:
[1] = test system: TCC8F7; assay: Proliferation of TCC8F7, 3H-thymidine (SI), 3 days; assay type: cell-based, human; settings: irradiated autologous PBMCs as APCs, Extended Data Fig. 5d
[2] = test system: sorted CD4+ PE and FITC TCRVβ+ TILs; assay: Proliferation of TCRBV-sorted CD4+ TILs (without TCRBV6.1 and TCRBV6.2); assay type: cell-based, human; settings: sheet 6b
From the text: TILs expressing specific TCRBVs were isolated from bulk TILs using a panel of 22 fluorescently labelled TCRBV antibodies that detect 27 different TCRBVs. Twelve TCRBV antibodies were labelled with PE and 10 with FITC (Beckman Coulter). […] After another wash, cells were stained with CD4 (1:100) (APC anti-human CD4, eBioscience), CD8 (1:100) (Pacific blue anti-human CD8, BioLegend), TCRBV-PE (1:25) (Beckman Coulter) and TCRBV-FITC (1:25) (Beckman Coulter) antibodies (Supplementary Table 12) for 30 min. Finally, cells were sorted, seeded at 5 × 10^4 cells per well in T cell medium without h-IL-2 and rested for 1 day before stimulation with 2 × 10^5 cells per well of irradiated autologous PBMCs (45 Gy) and peptide (10 µM).
Two populations of CD4^+ PE-TCRVβ^+ and CD4^+ FITC-TCRVβ^+ were sorted and later mixed together. […] Specific amount of each cytokine/chemokine (pg/ml) was calculated by subtracting the cytokines in the negative control cultures (no peptide control). Source data

[3] = test system: TCC88; settings: for Proliferation (SI), peptide dose titration: sheet f
[4] = test system: isolated TIL-derived CD4+ TCCs; assay: All isolated TCCs tested against SIN3A* peptide: IFNγ ELISA; assay type: cell-based, human; design: unit not given beside the values

In the case of Ac-QPVEFNHAIHYVN-NH2 [SIN3A*], the “response of TCC8F7 (in words)” value [1] is reported as “strongly responds”, the “Proliferation (SI) of sorted CD4+ TILs” value ([2]; replicate 1) is reported as 9.2018 and the “Proliferation (SI) of sorted CD4+ TILs” value ([2]; replicate 2) is reported as 10.7366. The “Proliferation (SI) of sorted CD4+ TILs” value ([2]; replicate 3) was 6.162, the “SI: TCC88” value ([3]; 3 h) was 20.6 and the “Proliferation (SI), peptide dose titration” value ([3]; peptide concentration 10-1 (unit not given), replicate 1) was 42.2997. For the same substance, the “Proliferation (SI), peptide dose titration” value ([3]; peptide concentration 10-1 (unit not given), replicate 2) was 45.1904, the “Proliferation (SI), peptide dose titration” value ([3]; peptide concentration 10-1 (unit not given), replicate 3) was 49.4521 and the “Proliferation (SI), peptide dose titration” value ([3]; peptide concentration 10-2 (unit not given), replicate 1) was 1.135. For the same substance, the “Proliferation (SI), peptide dose titration” value ([3]; peptide concentration 10-2 (unit not given), replicate 2) was 0.9523, the “Proliferation (SI), peptide dose titration” value ([3]; peptide concentration 10-2 (unit not given), replicate 3) was 1.168 and the “Proliferation (SI), peptide dose titration” value ([3]; peptide concentration 10-3 (unit not given), replicate 1) was 0.8172. For the same substance, the “Proliferation (SI), peptide dose titration” value ([3]; peptide concentration 10-3 (unit not given), replicate 2) was 0.7497, the “Proliferation (SI), peptide dose titration” value ([3]; peptide concentration 10-3 (unit not given), replicate 3) was 0.8105 and the “Proliferation (SI), peptide dose titration” value ([3]; peptide concentration printed 10, fifth line r7 (unit not printed), replicate 1) was 28.2921. For the same substance, the “Proliferation (SI), peptide dose titration” value ([3]; peptide concentration printed 10, fifth line r7 (unit not printed), replicate 2) was 32.0878, the “Proliferation (SI), peptide dose titration” value ([3]; peptide concentration printed 10, fifth line r7 (unit not printed), replicate 3) was 32.0203 and the “Proliferation (SI), peptide dose titration” value ([3]; peptide concentration printed 10, fourth line r6 (unit not printed), replicate 1) was 44.2381. For the same substance, the “Proliferation (SI), peptide dose titration” value ([3]; peptide concentration printed 10, fourth line r6 (unit not printed), replicate 2) was 56.0371, the “Proliferation (SI), peptide dose titration” value ([3]; peptide concentration printed 10, fourth line r6 (unit not printed), replicate 3) was 57.6243 and the ΔIFN-γ ([4]; TCC4, sheet 2b) was 149.53. The ΔIFN-γ ([4]; TCC11, sheet 2b) was 677.024, the ΔIFN-γ ([4]; TCC12, sheet 2b) was 3046.79 and the ΔIFN-γ ([4]; TCC13, sheet 2b) was 3192.25. For the same substance, the ΔIFN-γ ([4]; TCC15, sheet 2b) was 3025.62, the ΔIFN-γ ([4]; TCC16, sheet 2b) was 180.455 and the ΔIFN-γ ([4]; TCC20, sheet 2b) was 364.759. The ΔIFN-γ ([4]; TCC29, sheet 2b) was 1013.6, the ΔIFN-γ ([4]; TCC31, sheet 2b) was 514.2 and the ΔIFN-γ ([4]; TCC33, sheet 2b) was 2998.1. For the same substance, the ΔIFN-γ ([4]; TCC35, sheet 2b) was 228.964, the ΔIFN-γ ([4]; TCC38, sheet 2b) was 2702.02 and the ΔIFN-γ ([4]; TCC43, sheet 2b) was 1674.62. For the same substance, the ΔIFN-γ ([4]; TCC47, sheet 2b) was 2470.16, the ΔIFN-γ ([4]; TCC52, sheet 2b) was 3139.72 and the ΔIFN-γ ([4]; TCC56, sheet 2b) was 642.429. The ΔIFN-γ ([4]; TCC57, sheet 2b) was 2874.97, the ΔIFN-γ ([4]; TCC60, sheet 2b) was 2990.72 and the ΔIFN-γ ([4]; TCC63, sheet 2b) was 2437.29. The ΔIFN-γ ([4]; TCC64, sheet 2b) was 999.502, the ΔIFN-γ ([4]; TCC68, sheet 2b) was 1874.1 and the ΔIFN-γ ([4]; TCC71, sheet 2b) was 665.867. For the same substance, the ΔIFN-γ ([4]; TCC74, sheet 2b) was 114.375, the ΔIFN-γ ([4]; TCC75, sheet 2b) was 2585.8 and the ΔIFN-γ ([4]; TCC76, sheet 2b) was 3066.75. The ΔIFN-γ ([4]; TCC80, sheet 2b) was 218.522, the ΔIFN-γ ([4]; TCC88, sheet 2b) was 3049.73 and the ΔIFN-γ ([4]; TCC90, sheet 2b) was 3011.57. The ΔIFN-γ ([4]; TCC91, sheet 2b) was 1519.81, the ΔIFN-γ ([4]; TCC92, sheet 2b) was 2090.54 and the ΔIFN-γ ([4]; TCC93, sheet 2b) was 2670.59. For the same substance, the ΔIFN-γ ([4]; TCC94, sheet 2b) was 2350.89, the ΔIFN-γ ([4]; TCC96, sheet 2b) was 2552.89 and the ΔIFN-γ ([4]; TCC97, sheet 2b) was 2298.23. It also gave a ΔIFN-γ ([4]; TCC98, sheet 2b) of 2713.07, a ΔIFN-γ ([4]; TCC99, sheet 2b) of 3298.51 and a ΔIFN-γ ([4]; TCC101, sheet 2b) of 3002.86. For the same substance, the ΔIFN-γ ([4]; TCC102, sheet 2b) was 3070.31, the ΔIFN-γ ([4]; TCC103, sheet 2b) was 2311.95 and the ΔIFN-γ ([4]; TCC104, sheet 2b) was 2494.03. It also gave a ΔIFN-γ ([4]; TCC107, sheet 2b) of 2341.01, a ΔIFN-γ ([4]; TCC109, sheet 2b) of 2148.29 and a ΔIFN-γ ([4]; TCC110, sheet 2b) of 2115.13. The ΔIFN-γ ([4]; TCC111, sheet 2b) was 2750.31, the ΔIFN-γ ([4]; TCC112, sheet 2b) was 334.245 and the ΔIFN-γ ([4]; TCC113, sheet 2b) was 2127.79. It also gave a ΔIFN-γ ([4]; TCC114, sheet 2b) of 270.204, a ΔIFN-γ ([4]; TCC115, sheet 2b) of 2141.31 and a ΔIFN-γ ([4]; TCC116, sheet 2b) of 2065.23. The ΔIFN-γ ([4]; TCC117, sheet 2b) was 2609.06, the ΔIFN-γ ([4]; TCC120, sheet 2b) was 5141.59 and the ΔIFN-γ ([4]; TCC121, sheet 2b) was 3587.93. The ΔIFN-γ ([4]; TCC124, sheet 2b) was 8256.17, the ΔIFN-γ ([4]; TCC125, sheet 2b) was 202.234 and the ΔIFN-γ ([4]; TCC126, sheet 2b) was 7530.28. For the same substance, the ΔIFN-γ ([4]; TCC127, sheet 2b) was 9381.79, the ΔIFN-γ ([4]; TCC128, sheet 2b) was 4427.79 and the ΔIFN-γ ([4]; TCC129, sheet 2b) was 4034.06. The ΔIFN-γ ([4]; TCC130, sheet 2b) was 4723.17, the ΔIFN-γ ([4]; TCC131, sheet 2b) was 125.708 and the ΔIFN-γ ([4]; TCC132, sheet 2b) was 7560.44. For the same substance, the ΔIFN-γ ([4]; TCC133, sheet 2b) was 4444.38, the ΔIFN-γ ([4]; TCC134, sheet 2b) was 2468 and the ΔIFN-γ ([4]; TCC135, sheet 2b) was 4703.02. The ΔIFN-γ ([4]; TCC137, sheet 2b) was 3613.61 and the ΔIFN-γ ([4]; TCC138, sheet 2b) was 0.
